The experiment addresses KRas G12D (Homo sapiens (Human), UniProt P01116, G12D). The experiment is described as follows: KRas G12D Binding Assay (TR-FRET displacement of Cy5 labelled tracer). The conditions noted are these: GDP-loaded KRAS G12D (amino acids 1:169), 60 minute incubation at 22° C. On the procedure:
After a 60 minute incubation at 22° C., the reaction was measured using a PerkinElmer EnVision multimode plate reader via TR-FRET dual wavelength detection, and the percent of control (POC) calculated using a ratiometric emission factor. […] The POC values were fit to a 4-parameter logistic curve and the IC50 value was determined as the concentration where the curve crosses 50 POC.
ND stands for “not determined.”
A general note: Time-resolved FRET reads energy transfer from a long-lived donor to a nearby acceptor.

Sequence of KRas G12D (P01116 other isoform, or with tags, fused parts or gaps G12D): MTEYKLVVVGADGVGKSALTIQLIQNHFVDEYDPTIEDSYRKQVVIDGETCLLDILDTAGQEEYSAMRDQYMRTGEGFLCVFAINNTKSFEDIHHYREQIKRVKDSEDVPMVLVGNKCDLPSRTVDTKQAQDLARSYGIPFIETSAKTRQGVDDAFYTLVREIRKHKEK

The IC50 is the midpoint of a concentration-inhibition curve. Read a low IC50 as higher potency. Regarding `COc1c(C)cccc1-c1ncc2c(N3C[C@H]4CC[C@@H](C3)N4)nc(OCC34CCCN3CCC4)nc2c1F` [Example 313, 4-((1R,5S)-3,8-diazabicyclo[3.2.1]octan-3-yl)-8-fluoro-2-((hexahydro-1H-pyrrolizin-7a-yl)methoxy)-7-(2-methoxy-3-methylphenyl)pyrido[4,3-d]pyrimidine], the IC50 worked out at 231 nM. In the case of `Fc1c(-c2cccc3cccc(OC(F)(F)F)c23)ncc2c(N3C[C@H]4CC[C@@H](C3)N4)nc(OCC34CCCN3CCC4)nc12` [Example 345, 4-((1R,5S)-3,8-diazabicyclo[3.2.1]octan-3-yl)-8-fluoro-2-((tetrahydro-1H-pyrrolizin-7a(5H)-yl)methoxy)-7-(8-(trifluoromethoxy)naphthalen-1-yl)pyrido[4,3-d]pyrimidine] it was 10.6 nM; in that of `Cc1ccc(O)cc1-c1ncc2c(N3C[C@H]4CC[C@@H](C3)N4)nc(OCC34CCCN3CCC4)nc2c1F` [Example 256, 3-(4-((1R,5S)-3,8-diazabicyclo[3.2.1]octan-3-yl)-8-fluoro-2-((hexahydro-1H-pyrrolizin-7a-yl)methoxy)pyrido[4,3-d]pyrimidin-7-yl)-4-methylphenol], 13.2 nM.

With `NC(=O)Cc1cccc2cccc(-c3ncc4c(N5C[C@H]6CC[C@@H](C5)N6)nc(OCC56CCCN5CCC6)nc4c3F)c12` [Example 240, 2-(8-(4-((1R,5S)-3,8-diazabicyclo[3.2.1]octan-3-yl)-8-fluoro-2-((tetrahydro-1H-pyrrolizin-7a(5H)-yl)methoxy)pyrido[4,3-d]pyrimidin-7-yl)naphthalen-1-yl)acetamide], the 50% inhibitory concentration (IC50) was determined as 315 nM.

For the compound `c1ccc2c(-c3cc4nc(OCC56CCCN5CCC6)nc(N5C[C@H]6CC[C@@H](C5)N6)c4cn3)cccc2c1` [Example 233, 4-((1R,5S)-3,8-diazabicyclo[3.2.1]octan-3-yl)-7-(naphthalen-1-yl)-2-((tetrahydro-1H-pyrrolizin-7a(5H)-yl)methoxy)pyrido[4,3-d]pyrimidine], the IC50 amounted to 387 nM. `CC1(C)CN2C[C@H](F)CC2(COc2nc(N3CC4CCC(C3)N4)c3cnc(-c4cccc5cccc(Cl)c45)c(F)c3n2)C1` (mixture of isomers) [Example 325, 4-((1R,5S)-3,8-diazabicyclo[3.2.1]octan-3-yl)-7-(8-chloronaphthalen-1-yl)-8-fluoro-2-((6-fluoro-2,2-dimethyltetrahydro-1H-pyrrolizin-7a(5H)-yl)methoxy)pyrido[4,3-d]pyrimidine (racemic, trans)]: the IC50 turned out to be 141 nM. Compared with the last compound, the IC50 is about 2.7-fold lower. For `Cn1cc(CCOc2nc(N3C[C@H]4CC[C@@H](C3)N4)c3cnc(-c4cccc5cccc(Cl)c45)c(F)c3n2)cn1` [Example 146, 4-((1R,5S)-3,8-diazabicyclo[3.2.1]octan-3-yl)-7-(8-chloronaphthalen-1-yl)-8-fluoro-2-(2-(1-methyl-1H-pyrazol-4-yl)ethoxy)pyrido[4,3-d]pyrimidine], the IC50 amounted to 2290 nM. In the case of `O=C(OC[C@H]1CC[C@@]2(COc3nc(N4CC5CCC(C4)N5)c4cnc(-c5cccc6cccc(Cl)c56)c(F)c4n3)CCCN12)N1CCOCC1` [Example 445, ((3R,7aR)-7a-(((4-(3,8-diazabicyclo[3.2.1]octan-3-yl)-7-(8-chloronaphthalen-1-yl)-8-fluoropyrido[4,3-d]pyrimidin-2-yl)oxy)methyl)hexahydro-1H-pyrrolizin-3-yl)methyl morpholine-4-carboxylate] it was 2.7 nM; in that of `Nc1c(Cl)cc(Cl)c(F)c1-c1ncc2c(N3C[C@H]4CC[C@@H](C3)N4)nc(OCC34CCCN3CCC4)nc2c1F` [Example 266, 2-(4-((1R,5S)-3,8-diazabicyclo[3.2.1]octan-3-yl)-8-fluoro-2-((hexahydro-1H-pyrrolizin-7a-yl)methoxy)pyrido[4,3-d]pyrimidin-7-yl)-4,6-dichloro-3-fluoroaniline], 278 nM.

Turning to `CO[C@H](C)COc1nc(N2C[C@H]3CC[C@@H](C2)N3)c2cnc(-c3cccc4cccc(Cl)c34)c(F)c2n1` [Example 138, 4-((1R,5S)-3,8-diazabicyclo[3.2.1]octan-3-yl)-7-(8-chloronaphthalen-1-yl)-8-fluoro-2-((R)-2-methoxypropoxy)pyrido[4,3-d]pyrimidine], the IC50 was determined as 8070 nM. `Cc1c(Cl)cccc1-c1ncc2c(N3C[C@H]4CC[C@@H](C3)N4)nc(OCC34CCCN3CCC4)nc2c1F` [Example 274, 4-((1R,5S)-3,8-diazabicyclo[3.2.1]octan-3-yl)-7-(3-chloro-2-methylphenyl)-8-fluoro-2-((hexahydro-1H-pyrrolizin-7a-yl)methoxy)pyrido[4,3-d]pyrimidine] came in with an IC50 of 35.9 nM.

Compound `Oc1cccc2cccc(-c3ncc4c(N5C[C@H]6CC[C@@H](C5)N6)nc(OCC56CCCN5CCC6)nc4c3F)c12` [Example 237, 8-(4-((1R,5S)-3,8-diazabicyclo[3.2.1]octan-3-yl)-8-fluoro-2-((tetrahydro-1H-pyrrolizin-7a(5H)-yl)methoxy)pyrido[4,3-d]pyrimidin-7-yl)naphthalen-1-ol] displayed an IC50 of 500 nM. The figure for `CCc1c(F)ccc2cc(O)cc(-c3ncc4c(N5C[C@H]6CC[C@@H](C5)N6)nc(OCC56CCCN5CCC6)nc4c3F)c12` [Example 314, 4-(4-((1R,5S)-3,8-diazabicyclo[3.2.1]octan-3-yl)-8-fluoro-2-((hexahydro-1H-pyrrolizin-7a-yl)methoxy)pyrido[4,3-d]pyrimidin-7-yl)-5-ethyl-6-fluoronaphthalen-2-ol] is 0.6 nM; for `CN(C)C(=O)NC[C@H]1CC[C@@]2(COc3nc(N4CC5CCC(C4)N5)c4cnc(-c5cccc6cccc(Cl)c56)c(F)c4n3)CCCN12` [Example 412, 3-((7a-(((4-(3,8-diazabicyclo[3.2.1]octan-3-yl)-7-(8-chloronaphthalen-1-yl)-8-fluoropyrido[4,3-d]pyrimidin-2-yl)oxy)methyl)hexahydro-1H-pyrrolizin-3-yl)methyl)-1,1-dimethylurea] it is 17.7 nM; for `C#Cc1cccc2cc(OC)cc(-c3ncc4c(N5C[C@H]6CC[C@@H](C5)N6)nc(OCC56CCCN5CCC6)nc4c3F)c12` [Example 231, 4-((1R,5S)-3,8-diazabicyclo[3.2.1]octan-3-yl)-7-(8-ethynyl-3-methoxynaphthalen-1-yl)-8-fluoro-2-((hexahydro-1H-pyrrolizin-7a-yl)methoxy)pyrido[4,3-d]pyrimidine] it is 19.8 nM.

Consider `Fc1c(-c2ccccc2C(F)(F)F)ncc2c(N3C[C@H]4CC[C@@H](C3)N4)nc(OCC34CCCN3CCC4)nc12` [Example 370, 4-((1R,5S)-3,8-diazabicyclo[3.2.1]octan-3-yl)-8-fluoro-2-((tetrahydro-1H-pyrrolizin-7a(5H)-yl)methoxy)-7-(2-(trifluoromethyl)phenyl)pyrido[4,3-d]pyrimidine], for which the IC50 came out at 86.1 nM. `OCCc1ccccc1-c1ncc2c(N3C[C@H]4CC[C@@H](C3)N4)nc(OCC34CCCN3CCC4)nc2c1F` [Example 315, 2-(2-(4-((1R,5S)-3,8-diazabicyclo[3.2.1]octan-3-yl)-8-fluoro-2-((hexahydro-1H-pyrrolizin-7a-yl)methoxy)pyrido[4,3-d]pyrimidin-7-yl)phenyl)ethanol] yielded an IC50 of 2540 nM. Compared with the last compound, the IC50 is about 30-fold higher. The figure for `Oc1cc(-c2ncc3c(N4C[C@H]5CC[C@@H](C4)N5)nc(OC[C@@]45CCCN4C[C@H](F)C5)nc3c2F)c2c(Cl)cccc2c1` [Example 251, 4-(4-((1R,5S)-3,8-diazabicyclo[3.2.1]octan-3-yl)-8-fluoro-2-(((2R,7aS)-2-fluorohexahydro-1H-pyrrolizin-7a-yl)methoxy)pyrido[4,3-d]pyrimidin-7-yl)-5-chloronaphthalen-2-ol] is 0.2 nM; for `Oc1cccc(-c2ncc3c(N4C[C@H]5CC[C@@H](C4)N5)nc(OCC45CCCN4CCC5)nc3c2F)c1` [Example 271, 3-(4-((1R,5S)-3,8-diazabicyclo[3.2.1]octan-3-yl)-8-fluoro-2-((hexahydro-1H-pyrrolizin-7a-yl)methoxy)pyrido[4,3-d]pyrimidin-7-yl)phenol] it is 1620 nM.

In turn, `O=Cc1cc(CCOc2nc(N3C[C@H]4CC[C@@H](C3)N4)c3cnc(-c4cccc5cccc(Cl)c45)c(F)c3n2)ccc1O` [Example 62, 5-(2-((4-((1R,5S)-3,8-diazabicyclo[3.2.1]octan-3-yl)-7-(8-chloronaphthalen-1-yl)-8-fluoropyrido[4,3-d]pyrimidin-2-yl)oxy)ethyl)-2-hydroxybenzaldehyde] showed an IC50 of 8410 nM.

Regarding `Fc1c(-c2cnccc2C(F)(F)F)ncc2c(N3CC4CCC(C3)N4)nc(OC[C@@]34CCCN3C[C@H](F)C4)nc12` (stereo in doubt) [Example 415, 4-((1R,5S)-3,8-diazabicyclo[3.2.1]octan-3-yl)-8-fluoro-2-((2-fluorotetrahydro-1H-pyrrolizin-7a(5H)-yl)methoxy)-7-(4-(trifluoromethyl)pyridin-3-yl)pyrido[4,3-d]pyrimidine], the IC50 was determined as 2580 nM. Compared with the last compound, the IC50 is about 3.3-fold lower. Turning to `COC(=O)NC[C@H]1CC[C@@]2(COc3nc(N4CC5CCC(C4)N5)c4cnc(-c5cccc6cccc(Cl)c56)c(F)c4n3)CCCN12` [Example 411, methyl ((7a-(((4-(3,8-diazabicyclo[3.2.1]octan-3-yl)-7-(8-chloronaphthalen-1-yl)-8-fluoropyrido[4,3-d]pyrimidin-2-yl)oxy)methyl)hexahydro-1H-pyrrolizin-3-yl)methyl)carbamate], the IC50 turned out to be 17 nM. For `CCc1cccc2cccc(-c3ncc4c(N5CC6CCC(C5)N6)nc(OC[C@@]56C[C@H](O)CN5C[C@H](O)C6)nc4c3F)c12` [Example 466, (2R,6S,7as)-7a-(((4-((1R,5S)-3,8-diazabicyclo[3.2.1]octan-3-yl)-7-(8-ethylnaphthalen-1-yl)-8-fluoropyrido[4,3-d]pyrimidin-2-yl)oxy)methyl)hexahydro-1H-pyrrolizine-2,6-diol], the IC50 is 0.006 nM.

For the origin of these results see patent publication US20230279025A1, “KRAS G12D INHIBITORS” (Mirati Therapeutics, Inc., priority 2020, published 2023).
